For the test, the target named is T1, recombinant human MMP-13 (Homo sapiens, UniProt P45452).
T1 construct: made in house; host or cells: baculovirus (pBlueBac4 / Bac-N-Blue; virus made in Sf9), expressed in High-Five insect cells; culture supernatant used
Description: Assay of MMP-13 inhibiting activity (fluorogenic peptide substrate). It is filed as biochemical. The settings on record: Table 3; 37° C., 2 hours. From the text:
Based on the sequence described in the literature by Freije, J. M. et al (Journal of Biological Chemistry, 269: 16766-16773, 1994) and using a PCR method known per se, a human MMP-13 cDNA was obtained.
A pBlueBac4 (Invitrogen) and a Baculovirus vector Bac-N-Blue (Invitrogen) to each of which the human MMP-13 cDNA obtained above was integrated were co-transfected to an Sf9 cell to obtain a MMP-13-expressing recombinant virus.
The recombinant virus thus obtained was infected to a High-Five cell (Invitrogen), and the culture supernatant after three days was employed as an enzyme solution. Experiment 2 Assay of MMP-13 inhibiting activity
75 μl of a sample containing the recombinant human MMP-13, 200 mM sodium chloride, 20 mM calcium chloride, 0.1% Brij 35, 1 mM 2-mercaptoethanol, 200 mM tris-HCl buffer solution (pH7.5) and a test substance at various concentrations was treated with 25 μl of 40 μM MOCAc-Pro-Leu-Gly-Leu-A2pr(DNP)-Ala-Arg-NH2 (PEPTIDE KENKYUSHO) to initiate a reaction and kept at 37° C. for 2 hours, and then 100 μl of 500 mM sodium acetate-HCl buffer solution (pH3.0) was added to terminate the reaction.
The level of liberated MOCAc-Pro-Leu-Gly was determined using a fluorophotometer (MTP-32/F2: CORONA DENKI) at the excitation wavelength of 330 nm and the fluorescent wavelength of 405 nm. The fluorescent level of the reaction in the absence of a test substance was regarded as 100%, and the concentration of each test substance required for achieving 50% inhibition was indicated as IC50.
On to `O=C(Cc1ccc(Cl)cc1)SC1CC(=O)N(Cc2ccc(Oc3ccccc3)cc2)C1` (stereo not drawn) [Example 69, S-[5-oxo-1-(4-phenoxybenzyl)-3-pyrrolidinyl]-(4-chlorophenyl)ethanethioate], for which the IC50 (as a rule, the concentration needed to halve the response being measured) came out at 0.02 µM.
Turning to `O=C(SC1CC(=O)N(Cc2ccc(Oc3ccccc3)cc2)C1)C(c1ccccc1)c1ccccc1` (stereo not drawn) [Example 70, S-[5-oxo-1-(4-phenoxybenzyl)-3-pyrrolidinyl] 2,2-diphenylethanethioate], the IC50 is 0.002 µM.
Consider `CCOC(=O)CC(=O)S[C@@H]1CC(=O)N(Cc2ccc(Oc3ccccc3)cc2)C1` [Example 71, Ethyl 3-oxo-3-{[(3R)-5-oxo-1-(4-phenoxybenzyl)pyrrolidinyl]sulfanyl}propanoate], for which the IC50 is 0.00089 µM.
As to `CC(C)(C)OC(=O)CC(=O)S[C@@H]1CC(=O)N(Cc2ccc(Oc3ccccc3)cc2)C1` [Example 72, t-Butyl 3-oxo-3-{[(3R)-5-oxo-1-(4-phenoxybenzyl)pyrrolidinyl]sulfanyl}propanoate], the IC50 was determined as 0.0024 µM.
Consider `O=C(O)CC(=O)S[C@@H]1CC(=O)N(Cc2ccc(Oc3ccccc3)cc2)C1` [Example 73, 3-Oxo-3-{[(3R)-5-oxo-1-(4-phenoxybenzyl)pyrrolidinyl]sulfanyl}propanoic acid], for which the IC50 is 0.011 µM.
On to `CCOC(=O)CCC(=O)S[C@@H]1CC(=O)N(Cc2ccc(Oc3ccccc3)cc2)C1` [Example 74, Ethyl 4-oxo-4-{[(3R)-5-oxo-1-(4-phenoxybenzyl)pyrrolidinyl]sulfanyl}butanoate], for which the half-inhibitory concentration (IC50) came out at 0.0054 µM.
Regarding `O=C(O)CCC(=O)S[C@@H]1CC(=O)N(Cc2ccc(Oc3ccccc3)cc2)C1` [Example 75, 4-Oxo-4-{[(3R)-5-oxo-1-(4-phenoxybenzyl)pyrrolidinyl]sulfanyl}butanoic acid], the IC50 turned out to be 0.008 µM.
`CNC(=S)S[C@@H]1CC(=O)N(Cc2ccc(Oc3ccccc3)cc2)C1` [Example 76]: the IC50 is 0.0012 µM.
On to `CCNC(=S)S[C@@H]1CC(=O)N(Cc2ccc(Oc3ccccc3)cc2)C1` [Example 77], for which the half-inhibitory concentration (IC50) was 0.0016 µM.
The value for `COC(=O)SS[C@@H]1CC(=O)N(Cc2ccc(Oc3ccccc3)cc2)C1` [Example 78, (4R)-4-[(Methoxycarbonyl)disulfanyl]-2-oxo-1-(4-phenoxybenzyl)pyrrolidine] was above 10 µM.
In the case of `CCSS[C@@H]1CC(=O)N(Cc2ccc(Oc3ccccc3)cc2)C1` [Example 79, (4R)-4-(Ethyldisulfanyl)-1-(4-phenoxybenzyl)-2-pyrrolidinone] it was 0.1 µM.
Consider `CCCCCCSS[C@@H]1CC(=O)N(Cc2ccc(Oc3ccccc3)cc2)C1` [Example 80, (4R)-4-(Hexyldisulfanyl)-1-(4-phenoxybenzyl)-2-pyrrolidinone], for which the IC50 amounted to 1 µM.
For `CC(C)(C)SS[C@@H]1CC(=O)N(Cc2ccc(Oc3ccccc3)cc2)C1` [Example 81, (4R)-4-(t-Butyldisulfanyl)-1-(4-phenoxybenzyl)-2-pyrrolidinone], the IC50 turned out to be 1 µM.
Turning to `CCOC(=O)CSS[C@@H]1CC(=O)N(Cc2ccc(Oc3ccccc3)cc2)C1` [Example 82], the IC50 was found to be 0.05 µM.
In the case of `O=C(O)CSS[C@@H]1CC(=O)N(Cc2ccc(Oc3ccccc3)cc2)C1` [Example 83] it was 0.4 µM.
Take `O=C(O)CCSS[C@@H]1CC(=O)N(Cc2ccc(Oc3ccccc3)cc2)C1` [Example 85]: the IC50 turned out to be 0.46 µM.
`O=C(O)c1ccccc1SS[C@@H]1CC(=O)N(Cc2ccc(Oc3ccccc3)cc2)C1` [Example 86]: the IC50 was found to be 0.5 µM.
With `O=C1C[C@@H](SSc2ccccc2[N+](=O)[O-])CN1Cc1ccc(Oc2ccccc2)cc1` [Example 87, (4R)-4-[(2-Nitrophenyl)disulfanyl)-1-(4-phenoxybenzyl)-2-pyrrolidinone], the IC50 was found to be 0.6 µM.
Take `C/C(=C(\CCO)SS[C@@H]1CC(=O)N(Cc2ccc(Oc3ccccc3)cc2)C1)N(C=O)Cc1cnc(C)nc1N` [Example 88, (4-Amino-2-methyl-5-pyrimidinyl)methyl((Z)-4-hydroxy-1-methyl-2-{[(3R)-5-oxo-1-(4-phenoxybenzyl)pyrrolidinyl]disulfanyl}-1-butenyl)formamide]: the half-maximal inhibitory concentration (IC50) amounted to 0.67 µM.
On to `CS[C@@H]1CC(=O)N(Cc2ccc(Oc3ccccc3)cc2)C1` [Example 89, (4R)-4-(Methylsulfanyl)-1-(4-phenoxybenzyl)-2-pyrrolidinone], for which the IC50 came to 0.7 µM.
Regarding `O=C1C[C@@H](SCCO)CN1Cc1ccc(Oc2ccccc2)cc1` [Example 90, (4R)-4-[(2-Hydroxyethyl)sulfanyl)-1-(4-phenoxybenzyl)-2-pyrrolidinone], the IC50 was 5 µM.
With `O=C(O)CS[C@@H]1CC(=O)N(Cc2ccc(Oc3ccccc3)cc2)C1` [Example 91, 2-{[(3R)-5-Oxo-1-(4-phenoxybenzyl)pyrrolidinyl]sulfanyl}acetic acid], the 50% inhibitory concentration (IC50) came out at 1 µM.
The value for `CCOC(=O)CCS[C@@H]1CC(=O)N(Cc2ccc(Oc3ccccc3)cc2)C1` [Example 92, Ethyl 3-{[(3R)-5-oxo-1-(4-phenoxybenzyl)pyrrolidinyl]sulfanyl}propanoate] was 2 µM.
Take `O=C(O)CCS[C@@H]1CC(=O)N(Cc2ccc(Oc3ccccc3)cc2)C1` [Example 93, 3-{[(3R)-5-Oxo-1-(4-phenoxybenzyl)pyrrolidinyl]sulfanyl}propanoic acid]: the IC50 was 6 µM.
Regarding `O=C1CC(SCc2ccc(Br)cc2)CN1Cc1ccc(Oc2ccccc2)cc1` (centres unmarked) [Example 94, 4-[(4-Bromobenzyl)sulfanyl)-1-(4-phenoxybenzyl)-2-pyrrolidinone], the IC50 is 0.3 µM.
`COC(=O)c1ccc(CS[C@@H]2CC(=O)N(Cc3ccc(Oc4ccccc4)cc3)C2)cc1` [Example 95, Methyl 4-({[(3R)-5-oxo-1-(4-phenoxybenzyl)pyrrolidinyl]sulfanyl}methyl)benzoate]: the IC50 is 0.4 µM.
In the case of `O=C(O)c1ccc(CS[C@@H]2CC(=O)N(Cc3ccc(Oc4ccccc4)cc3)C2)cc1` [Example 96, 4-({[(3R)-5-oxo-1-(4-phenoxybenzyl)pyrrolidinyl]sulfanyl}methyl)benzoic acid] it was 0.7 µM; in that of `O=C1CC(SCCS(=O)(=O)c2ccccc2)CN1Cc1ccc(Oc2ccccc2)cc1` (centres unmarked) [Example 97, 1-(4-phenoxybenzyl)-4-{[2-(phenylsulfonyl)ethyl]sulfanyl}-2-pyrrolidinone], 2 µM; in that of `COCS[C@@H]1CC(=O)N(Cc2ccc(Oc3ccccc3)cc2)C1` [Example 98, (4R)-4-[(Methoxymethyl)sulfanyl]-1-(4-phenoxybenzyl)-2-pyrrolidinone], 0.2 µM.
`O=C1OC(S[C@@H]2CC(=O)N(Cc3ccc(Oc4ccccc4)cc3)C2)c2ccccc21` (stereo partly drawn) [Example 99, (4R)-4-[(3-Oxo-1,3-dihydro-2-benzofuran-1-yl)sulfanyl]-1-(4-phenoxybenzyl)-2-pyrrolidinone]: the IC50 amounted to 0.007 µM.
As to `CC(=O)NCS[C@@H]1CC(=O)N(Cc2ccc(Oc3ccccc3)cc2)C1` [Example 100, N-({[(3R)-5-Oxo-1-(4-phenoxybenzyl)pyrrolidinyl]sulfanyl}methyl)acetamide], the 50% inhibitory concentration (IC50) is 2 µM.
Regarding `CC(C)(C)C(=O)NCS[C@@H]1CC(=O)N(Cc2ccc(Oc3ccccc3)cc2)C1` [Example 101, 2,2-Dimethyl-N-({[(3R)-5-oxo-1-(4-phenoxybenzyl)pyrrolidinyl]sulfanyl}methyl)propanamide], the IC50 came out at 3 µM.
The value for `O=C(NCS[C@@H]1CC(=O)N(Cc2ccc(Oc3ccccc3)cc2)C1)c1ccccc1` [Example 102, N-({[(3R)-5-oxo-1-(4-phenoxybenzyl)pyrrolidinyl]sulfanyl}methyl)benzamide] was 0.1 µM; that for `CCOC(=O)NCS[C@@H]1CC(=O)N(Cc2ccc(Oc3ccccc3)cc2)C1` [Example 103, Ethyl {[(3R)-5-oxo-1-(4-phenoxybenzyl)pyrrolidinyl]sulfanyl}methylcarbamate] was 0.3 µM.
The value for `O=C1C[C@@H](SCN2C(=O)c3ccccc3C2=O)CN1Cc1ccc(Oc2ccccc2)cc1` [Example 104, 2-({[(3R)-5-oxo-1-(4-phenoxybenzyl)pyrrolidinyl]sulfanyl}methyl)-1H-isoindole-1,3-(2H)-dione] was 0.2 µM.
The value for `O=C1CC(S[C@@H]2CC(=O)N(Cc3ccc(Oc4ccccc4)cc3)C2)C(=O)N1` (stereo partly drawn) [Example 105, 3-{[(3R)-5-Oxo-1-(4-phenoxybenzyl)pyrrolidinyl]sulfanyl}-2,5-pyrrolidinedione] was 0.04 µM; that for `CN1C(=O)CC(S[C@@H]2CC(=O)N(Cc3ccc(Oc4ccccc4)cc3)C2)C1=O` (stereo partly drawn) [Example 106, 1-Methyl-3-{[(3R)-5-oxo-1-(4-phenoxybenzyl)pyrrolidinyl]sulfanyl}-2,5-pyrrolidinedione] was 0.02 µM; that for `CCOC(=O)S[C@@H]1CC(=O)N(Cc2ccc(Oc3ccccc3)cc2)C1` [Example 107, O-Ethyl S-[(3R)-5-oxo-1-(4-phenoxybenzyl)pyrrolidinyl]carbanothioate] was 0.03 µM.

The record behind these values is US6953789B2, “Thiol compounds, their production and use” (Takeda Chemical Industries, Ltd., priority 1998, dated 2005).
